Data published in ChEMBL document CHEMBL4428113, “Antitubercular and cytotoxic tigliane-type diterpenoids from Croton tiglium” (Bioorg Med Chem Lett, 2016).

What was measured:
Huh-7 = experiment: Cytotoxicity against human HuH7 cells after 72 hrs by CCK8 assay; format: functional, cell-based; settings: Huh-7, 72 h
K562 = experiment: Cytotoxicity against human K562 cells after 72 hrs by CCK8 assay; format: functional, cell-based; settings: K562, 72 h
[1] = tested on: Mycobacterium tuberculosis; experiment: Antitubercular activity against Mycobacterium tuberculosis H37Ra incubated for 7 days by Alamar blue dye-based fluorometric assay; format: functional, organism-based; settings: 168 h
A549 = experiment: Cytotoxicity against human A549 cells after 72 hrs by CCK8 assay; format: functional, cell-based; settings: A549, 72 h

## C/C=C(\C)C(=O)O[C@@H]1[C@@H](C)[C@]2(O)[C@@H]3C=C(C)C(=O)[C@@H]3CC(CO)=C[C@H]2[C@@H]2C(C)(C)[C@]12OC(C)=O
Huh-7
  IC50: 3.36 µM
K562
  IC50: 0.07 µM
[1]
  IC50: 20.5 µM
A549
  IC50: 8.5 µM

## CCC(C)C(=O)O[C@@]12[C@H](O)[C@@H](C)[C@@]3(O)[C@H]([C@@H]1C2(C)C)[C@@H](O)C(CO)=C[C@]1(O)C(=O)C(C)=C[C@@H]31 (some centres not stated)
Huh-7
  IC50: 11.6 µM
K562
  IC50: 0.07 µM
[1]
  IC50: > 30 µM
A549
  IC50: 8.86 µM

## CCC(C)C(=O)O[C@@]12[C@H](O)[C@@H](C)[C@@]3(O)[C@@H](C=C(CO)C[C@]4(O)C(=O)C(C)=C[C@@H]34)[C@@H]1C2(C)C (some centres not stated)
Huh-7
  IC50: 34.2 µM
K562
  IC50: 0.05 µM
[1]
  IC50: > 30 µM
A549
  IC50: 43.5 µM

## C/C=C(\C)C(=O)O[C@@H]1[C@@H](C)[C@]2(O)[C@@H]3C=C(C)C(=O)[C@@H]3CC(C=O)=C[C@H]2[C@@H]2C(C)(C)[C@]12OC(C)=O
Huh-7
  IC50: 3.85 µM
K562
  IC50: 0.03 µM
[1]
  IC50: 19.5 µM
A549
  IC50: 6.88 µM

## C/C=C(\C)C(=O)O[C@@H]1[C@@H](C)[C@@]2(O)[C@@H](C(=O)C(CO)=C[C@]3(O)C(=O)C(C)=C[C@@H]23)[C@@H]2C(C)(C)[C@]12OC(=O)C(C)C
Huh-7
  IC50: 4.41 µM
K562
  IC50: 0.05 µM
[1]
  IC50: 13.4 µM
A549
  IC50: 3.11 µM

## CCC(C)C(=O)O[C@@]12[C@H](O)[C@@H](C)[C@@]3(O)[C@@H](C(=O)C(CO)=C[C@]4(O)C(=O)C(C)=C[C@@H]34)[C@@H]1C2(C)C (some centres not stated)
Huh-7
  IC50: 20.9 µM
K562
  IC50: 0.03 µM
[1]
  IC50: 20.9 µM
A549
  IC50: 6.33 µM

## NNC(=O)c1ccncc1 [ISONIAZID]
[1]
  IC50: 2.04 µM

## CC(=O)O[C@H]1C(=O)[C@@]2(C)[C@H]([C@H](OC(=O)c3ccccc3)[C@]3(O)C[C@H](OC(=O)[C@H](O)[C@@H](NC(=O)c4ccccc4)c4ccccc4)C(C)=C1C3(C)C)[C@]1(OC(C)=O)CO[C@@H]1C[C@@H]2O [PACLITAXEL]
Huh-7
  IC50: 6.75 µM
K562
  IC50: 3.21 µM
A549
  IC50: 1.92 µM

## CC1=C[C@H]2[C@@]3(O)[C@H](C)[C@@H](O)[C@]4(O)[C@H]([C@@H]3C=C(CO)C[C@]2(O)C1=O)C4(C)C [PHORBOL]
Huh-7
  IC50: 5.93 µM
K562
  IC50: 0.1 µM
[1]
  IC50: > 30 µM
A549
  IC50: 15.3 µM
